Reference: ChEMBL document CHEMBL1201862, “PubChem BioAssay data set” (2004)
Calls of active or inactive are those of the source. Cut-off read from the data, not from the text of the source, for most assays here: actives have a measured IC50 and inactives only a lower limit.

How the values were obtained:
[1] = target: T1, Sentrin-specific protease 8 (Homo sapiens, UniProt Q96LD8); assay: SENP8 protease inhibitors, SAR follow-up, biochemical, luminescence, set 2 (AID 588601); assay type: functional
T1 sequence (Q96LD8 whole entry): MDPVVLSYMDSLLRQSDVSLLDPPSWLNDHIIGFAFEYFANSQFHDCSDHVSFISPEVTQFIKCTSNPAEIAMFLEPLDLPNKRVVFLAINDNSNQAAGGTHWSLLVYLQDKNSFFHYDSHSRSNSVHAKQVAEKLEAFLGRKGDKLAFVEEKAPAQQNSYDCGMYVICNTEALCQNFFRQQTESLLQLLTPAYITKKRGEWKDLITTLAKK

[2] = target: T2, Sentrin-specific protease 6 (Homo sapiens, UniProt Q9GZR1); assay: SAR Analysis of small molecule inhibitors of Sentrin-specific protease 6 (SENP6) using a Luminescent assay. [Related pubchem assays (depositor defined):AID2582, AID2599]; assay type: functional
T2 sequence (Q9GZR1 whole entry): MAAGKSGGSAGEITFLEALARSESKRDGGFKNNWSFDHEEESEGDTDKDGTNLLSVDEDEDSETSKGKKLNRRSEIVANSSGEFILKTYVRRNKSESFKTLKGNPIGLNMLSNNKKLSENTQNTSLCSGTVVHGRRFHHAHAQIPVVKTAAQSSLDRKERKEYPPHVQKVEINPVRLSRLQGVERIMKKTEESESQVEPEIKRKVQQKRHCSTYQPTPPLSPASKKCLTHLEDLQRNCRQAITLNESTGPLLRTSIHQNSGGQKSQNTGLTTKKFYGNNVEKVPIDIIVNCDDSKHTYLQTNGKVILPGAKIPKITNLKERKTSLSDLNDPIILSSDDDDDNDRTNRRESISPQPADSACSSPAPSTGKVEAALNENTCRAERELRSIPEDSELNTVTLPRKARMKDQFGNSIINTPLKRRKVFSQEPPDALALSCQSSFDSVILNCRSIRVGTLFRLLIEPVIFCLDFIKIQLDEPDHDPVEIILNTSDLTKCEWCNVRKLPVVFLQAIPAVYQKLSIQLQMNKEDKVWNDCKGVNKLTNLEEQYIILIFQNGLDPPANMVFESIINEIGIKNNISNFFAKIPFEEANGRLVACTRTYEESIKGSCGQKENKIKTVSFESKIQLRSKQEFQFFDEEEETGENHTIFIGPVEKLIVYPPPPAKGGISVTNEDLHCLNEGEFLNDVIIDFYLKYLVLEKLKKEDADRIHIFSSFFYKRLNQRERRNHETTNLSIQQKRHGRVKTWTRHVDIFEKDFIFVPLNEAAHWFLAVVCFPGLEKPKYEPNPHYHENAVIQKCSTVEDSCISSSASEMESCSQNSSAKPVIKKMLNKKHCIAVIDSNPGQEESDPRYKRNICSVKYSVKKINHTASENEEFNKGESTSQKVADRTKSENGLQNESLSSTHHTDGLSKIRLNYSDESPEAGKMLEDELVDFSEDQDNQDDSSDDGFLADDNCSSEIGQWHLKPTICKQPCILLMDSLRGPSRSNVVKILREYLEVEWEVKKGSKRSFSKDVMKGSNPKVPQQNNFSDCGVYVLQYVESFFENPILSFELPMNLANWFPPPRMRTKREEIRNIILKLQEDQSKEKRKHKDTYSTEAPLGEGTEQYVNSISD

Caspase-3 [3] = target: T3, Caspase-3 (Homo sapiens, UniProt P42574); assay: SAR Analysis of small molecule inhibitors of Sentrin-specific proteases (SENPs) using a Caspase-3 Selectivity assay. [Related pubchem assays (depositor defined):AID2540, AID2599, AID434973, AID489001]; assay type: functional
T3 sequence (P42574 whole entry): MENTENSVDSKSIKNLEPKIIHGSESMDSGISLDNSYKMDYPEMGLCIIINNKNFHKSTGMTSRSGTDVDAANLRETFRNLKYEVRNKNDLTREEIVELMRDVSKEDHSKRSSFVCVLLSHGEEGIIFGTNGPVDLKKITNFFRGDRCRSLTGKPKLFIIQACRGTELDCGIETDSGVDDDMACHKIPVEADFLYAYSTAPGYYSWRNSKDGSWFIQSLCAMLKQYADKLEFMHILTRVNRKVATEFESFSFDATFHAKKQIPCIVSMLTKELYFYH

Caspase-3 [4] = target: T3, Caspase-3; assay: caspase-3 inhibitors as off-family protease, SAR follow-up, selectivity assay for SENP protease inhibitor project, biochemical, luminescence, set 2 (AID 588599); assay type: functional
[5] = target: T4, Sentrin-specific protease 7 (Homo sapiens, UniProt Q9BQF6); assay: SENP7 protease inhibitors, SAR follow-up, biochemical, luminescence (AID 504497); assay type: functional
T4 sequence (Q9BQF6 whole entry): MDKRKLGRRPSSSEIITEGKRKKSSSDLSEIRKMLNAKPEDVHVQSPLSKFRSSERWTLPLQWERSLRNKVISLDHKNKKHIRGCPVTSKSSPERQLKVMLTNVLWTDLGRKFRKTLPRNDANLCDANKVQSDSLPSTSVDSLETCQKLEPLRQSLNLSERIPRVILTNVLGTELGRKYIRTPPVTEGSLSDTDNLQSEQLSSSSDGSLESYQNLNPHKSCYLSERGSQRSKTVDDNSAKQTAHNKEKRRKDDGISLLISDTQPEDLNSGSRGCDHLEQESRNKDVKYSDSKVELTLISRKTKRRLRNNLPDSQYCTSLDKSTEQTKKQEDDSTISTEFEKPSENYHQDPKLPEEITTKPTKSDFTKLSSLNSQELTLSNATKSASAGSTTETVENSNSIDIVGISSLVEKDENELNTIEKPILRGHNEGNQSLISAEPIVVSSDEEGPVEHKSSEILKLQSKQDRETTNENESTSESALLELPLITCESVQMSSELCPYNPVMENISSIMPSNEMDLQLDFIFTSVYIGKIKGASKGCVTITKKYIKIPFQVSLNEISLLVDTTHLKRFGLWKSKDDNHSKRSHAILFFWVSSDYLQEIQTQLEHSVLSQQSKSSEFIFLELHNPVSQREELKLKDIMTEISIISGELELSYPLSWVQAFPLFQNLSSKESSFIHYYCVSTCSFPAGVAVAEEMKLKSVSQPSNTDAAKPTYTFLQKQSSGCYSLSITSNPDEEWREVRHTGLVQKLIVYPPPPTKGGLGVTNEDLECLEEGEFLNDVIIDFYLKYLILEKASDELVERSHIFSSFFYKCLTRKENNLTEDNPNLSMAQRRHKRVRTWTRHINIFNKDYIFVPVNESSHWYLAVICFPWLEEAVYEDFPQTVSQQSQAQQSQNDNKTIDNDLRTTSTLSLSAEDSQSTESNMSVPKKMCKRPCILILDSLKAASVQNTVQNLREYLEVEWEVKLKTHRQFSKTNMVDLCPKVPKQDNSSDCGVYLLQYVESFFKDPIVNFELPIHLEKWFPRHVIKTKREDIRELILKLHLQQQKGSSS

[6] = target: T4, Sentrin-specific protease 7; assay: SENP7 protease inhibitors, SAR follow-up, biochemical, luminescence, set 2 (AID 588600); assay type: functional
[7] = target: T2, Sentrin-specific protease 6; assay: SENP6 protease inhibitors, SAR follow-up, biochemical, luminescence, set 2 (AID 588598); assay type: functional
[8] = target: T1, Sentrin-specific protease 8; assay: SENP8 protease inhibitors, SAR follow-up, biochemical, luminescence (AID 504501); assay type: functional
HEK293 [9] = assay: optical interference in Abeta FP readout, dose response, artefact control for IDE activator project, biochemical, fluorescence polarization (AID 588442); assay type: functional, cell-based; conditions: Homo sapiens
Insulin-degrading enzyme [10] = target: T5, Insulin-degrading enzyme (Homo sapiens, UniProt P14735); assay: activators of endogenous IDE in HEK cells, dose response, cell-based, fluorescence polarization (AID 588439); assay type: functional
T5 sequence (P14735 whole entry): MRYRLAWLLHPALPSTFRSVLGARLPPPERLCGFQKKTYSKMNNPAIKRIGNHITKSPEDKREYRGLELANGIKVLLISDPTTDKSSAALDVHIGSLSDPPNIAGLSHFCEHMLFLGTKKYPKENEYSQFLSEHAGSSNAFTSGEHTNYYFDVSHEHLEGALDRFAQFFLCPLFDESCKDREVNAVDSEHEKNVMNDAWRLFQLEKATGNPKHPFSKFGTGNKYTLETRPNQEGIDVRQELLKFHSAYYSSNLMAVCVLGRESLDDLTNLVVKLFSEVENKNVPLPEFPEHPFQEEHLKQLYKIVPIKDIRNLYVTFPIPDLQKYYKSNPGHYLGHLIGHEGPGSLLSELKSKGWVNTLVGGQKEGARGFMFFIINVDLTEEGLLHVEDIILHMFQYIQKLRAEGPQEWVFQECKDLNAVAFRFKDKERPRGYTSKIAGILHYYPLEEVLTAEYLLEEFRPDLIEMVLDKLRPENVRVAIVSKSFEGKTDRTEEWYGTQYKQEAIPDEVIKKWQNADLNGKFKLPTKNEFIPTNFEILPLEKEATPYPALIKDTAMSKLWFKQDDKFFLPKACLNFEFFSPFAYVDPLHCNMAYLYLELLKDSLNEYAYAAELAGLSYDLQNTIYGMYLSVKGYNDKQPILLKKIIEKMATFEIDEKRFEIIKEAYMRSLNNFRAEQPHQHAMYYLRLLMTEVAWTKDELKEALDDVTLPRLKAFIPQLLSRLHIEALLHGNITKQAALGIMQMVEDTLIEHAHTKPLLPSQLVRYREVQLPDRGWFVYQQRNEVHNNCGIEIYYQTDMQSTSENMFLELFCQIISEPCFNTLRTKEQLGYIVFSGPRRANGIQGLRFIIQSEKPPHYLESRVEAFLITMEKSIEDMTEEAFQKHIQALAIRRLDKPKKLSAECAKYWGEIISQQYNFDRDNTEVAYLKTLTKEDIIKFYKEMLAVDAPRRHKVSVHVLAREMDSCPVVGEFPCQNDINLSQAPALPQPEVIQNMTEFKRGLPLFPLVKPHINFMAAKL

Insulin-degrading enzyme [11] = target: T5, Insulin-degrading enzyme; assay: activators of recombinant IDE enzyme, dose response, counter-screen for IDE activator project, biochemical, fluorescence polarization (AID 588681)
HEK293 [12] = assay: HEK cell cytotoxicity by LDH release, dose response, cytotoxicity control for IDE activator project, fluorescence, HEK cells (AID 588440); assay type: functional, cell-based; conditions: Homo sapiens;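 note: cytotoxicity by LDH release measuring loss of membrane integrity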

| IC50 [2] | IC50 (Caspase-3 [3]) | IC50 (Caspase-3 [4]) | IC50 [5] | IC50 [6] | IC50 [7] | Compound | IC50 [1] | IC50 [8] | EC50 (HEK293 [9]) | EC50 (Insulin-degrading enzyme [10]) | EC50 (Insulin-degrading enzyme [11]) | IC50 (HEK293 [12]) |
| --- | --- | --- | --- | --- | --- | --- | --- | --- | --- | --- | --- | --- |
| 1.2 µM (active) | 1.2 µM (active) | 1.44 µM (active) | 1 µM (active) | 1.36 µM (active) | 1.35 µM (active) | Oc1ccccc1-c1nc(/C=C/c2ccccc2Cl)no1 | 1.29 µM (active) | 1.2 µM (active) | – | – | – | – |
| – | – | – | – | – | – | CC(C)CN1CCC(=O)N([C@H](CO)c2ccccc2)CC1 | – | – | > 54.7 µM (inactive) | > 54.7 µM (inactive) | > 54.7 µM (inactive) | > 89.3 µM (inactive) |
